This is an account of results in publication PMC9973354 (mBio, 2022).

As usually defined, the Kd is the concentration at which binding is half-saturated.

Where “and” joins values, the source holds several entries; their conditions need not be identical. Equal values may be shown once. Read-outs that look alike come from different tables or passages of the source. Starred links: 1 amine or outer side, 2 acyl side, 3 side chain; linkers in the order of their positions; H or OH if unused. Positions of bridges follow the written chain, without caps; N, C: chain ends. Non-standard residues stand in square brackets, D forms with d. Residues, ends and D or L forms follow the SMILES beside them. ξ: configuration not given here. X1 = O=C([C@@H]1CCN=C2C(N[*:1])=Cc3cc(O)c(O)cc3N21)[*:2]; ξOrn(N(OH)CHO) = NC(CCCN(O)C=O)C(=O)O; Suc = O=C(CCC(=O)[*:2])[*:1]; ξK = NCCCCC(N)C(=O)O; ξS = NC(CO)C(=O)O

One assay has as its target T1, FpvB W347V R648C (Pseudomonas aeruginosa, UniProt A0A0H2ZFZ5, R648C/W347V).
T1 sequence (A0A0H2ZFZ5 23-802 W347V/R648C): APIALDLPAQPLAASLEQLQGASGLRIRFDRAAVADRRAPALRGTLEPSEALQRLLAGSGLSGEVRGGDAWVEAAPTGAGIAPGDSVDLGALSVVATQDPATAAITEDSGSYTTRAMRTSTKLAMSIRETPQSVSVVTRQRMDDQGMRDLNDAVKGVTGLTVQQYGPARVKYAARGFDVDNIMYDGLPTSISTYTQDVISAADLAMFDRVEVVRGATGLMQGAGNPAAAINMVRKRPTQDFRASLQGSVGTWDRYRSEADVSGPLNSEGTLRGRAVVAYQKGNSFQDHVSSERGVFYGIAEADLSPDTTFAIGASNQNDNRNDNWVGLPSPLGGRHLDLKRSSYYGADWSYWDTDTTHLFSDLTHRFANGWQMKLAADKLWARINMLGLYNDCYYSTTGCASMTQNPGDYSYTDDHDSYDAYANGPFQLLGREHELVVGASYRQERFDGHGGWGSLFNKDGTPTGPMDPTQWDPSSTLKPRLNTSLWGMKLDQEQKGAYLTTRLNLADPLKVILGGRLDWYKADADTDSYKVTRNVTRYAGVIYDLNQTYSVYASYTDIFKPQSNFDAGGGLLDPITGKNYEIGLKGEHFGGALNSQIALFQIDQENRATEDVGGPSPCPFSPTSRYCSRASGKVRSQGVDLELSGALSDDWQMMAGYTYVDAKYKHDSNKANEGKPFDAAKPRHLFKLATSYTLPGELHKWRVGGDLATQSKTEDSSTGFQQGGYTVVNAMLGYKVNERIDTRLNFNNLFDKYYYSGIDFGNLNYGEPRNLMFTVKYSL
Kind of assay: Whole-cell fluorescence quenching, FpvB W347V R648C. It counts as binding. Conditions: FpvB W347V R648C. The procedure:
(§1) Quenching assays with the two xenosiderophores were repeated for the quadruple TBDT mutant expressing WT FpvB, FpvB R191A R648C, or W347V R648C.
(§2) Cells were cultured overnight in LB with carbenicillin (200 μg/mL) at 37°C with shaking at 200 rpm. Cells were subcultured (1:200 dilution) in 10:90 plus 2% arabinose for 4 h without carbenicillin at 37°C with shaking at 200 rpm. Cells were harvested by centrifugation for 5 min and 6,000 × g and resuspended in sterile 1× phosphate-buffered saline (PBS) (pH 7.4); 1× PBS was made from a 10× stock (80 g NaCl, 2 g KCl, 26.8 g Na2 HPO4-7H2O, 2.4 g KH2PO4 in 1 L of deionized H2O) with 10 μM Alexa Fluor 594 C5 maleimide for microscopy or fluorescein-5-maleimide for fluorescence quenching and recovery assays and incubated in the dark at room temperature for 30 min on a shaking incubator at 37°C (200 rpm). Excess dye was quenched with 1 mM dithiothreitol (DTT) (Sigma) to stop the reaction. Cells were washed 3× with PBS. For fluorescence recovery assays, cells were incubated with 1× PBS plus 0.4% glucose at 37°C with shaking at 200 rpm. Glucose was prepared as a 20% stock (wt/vol) in 1× PBS and filter sterilized. Cells were spun down and washed 3× with 1× PBS and resuspended in 1× PBS for quenching assays and 1× PBS plus 0.4% glucose for fluorescence recovery assays.
(§3) For fluorescence quenching and recovery assays, cells were diluted to an OD600 of 0.1 for both types of assays, and 148 μL was added into wells of a 96-well black plate (Corning). Fluorescence was recorded for 5 min at 1-min intervals at 37°C (BioTek Neo; excitation, 494 nm; emission, 520 nm). After 5 min, 2 μL of each serial dilution for ferrioxamine-Fe^3+, ferrichrome-Fe^3+, and pyoverdine-Fe^3+ or DMSO for vehicle controls was added to each well. Fluorescence was recorded immediately for quenching assays and for 1 h at 1-min intervals for fluorescence recovery assays. Background fluorescence was subtracted from all fluorescence readings and 1-F/F0 was used to calculate the degree of quenching, where F0 is the initial fluorescence. Kd was calculated using GraphPad Prism using a one-site specific binding model or a two-site model. For fluorescence recovery assays, background was subtracted from all fluorescence readings and F/F0 expressed as a percent of control was plotted versus time.

In a further assay the test system is FpvB. Briefly: Western blot of FLAG-tagged FpvB expression after compound treatment. It counts as cell-based, Pseudomonas aeruginosa. The following applies: WT PA14 fpvB-FLAG; 10 μg/mL siderophores, 64 μg/mL DSX, 10:90. Background: In western blotting, separated proteins are transferred to a membrane and probed.
The target of the next assay is T2, FpvB R191A R648C (Pseudomonas aeruginosa, UniProt A0A0H2ZFZ5, R191A/R648C).
T2 sequence (A0A0H2ZFZ5 23-802 R191A/R648C): T1 sequence (A0A0H2ZFZ5 23-802 W347V/R648C)
Kind of assay: Whole-cell fluorescence quenching, FpvB R191A R648C. The following applies: FpvB R191A R648C. It counts as binding. The procedure:
as §1, §2, §3

A further assay deals with T3, FpvB R648C (Pseudomonas aeruginosa, UniProt A0A0H2ZFZ5, R648C).
T3 sequence (A0A0H2ZFZ5 23-802 R648C): T1 sequence (A0A0H2ZFZ5 23-802 W347V/R648C)
Kind of assay: Fluorescence recovery assay (siderophore uptake by FpvB). The class given is cell-based. The procedure:
Cells were equilibrated for 5 min prior to introduction of the siderophores. Fluorescence was recorded every min for 1 h. Carbonyl cyanide m-chlorophenylhydrazone (CCCP) was used as a control to inhibit fluorescence recovery through dissipation of the proton motive force (PMF) ([2], [3]), which is required for uptake.
as §2, with “Glucose was prepared as a 20% stock (wt/vol) in 1× PBS and filter sterilized.” left out
as §3, with “After 5 min, 2 μL of each serial dilution for ferrioxamine-Fe^3+, ferrichrome-Fe^3+, and pyoverdine-Fe^3+ or DMSO for vehicle controls was added to each well.” left out, “For fluorescence recovery assays, background was subtracted from all fluorescence readings and F/F0 expressed as a percent of control was plotted versus time.” left out

Setting [1] is: one-site model, read-out: Kd (converted).

On to `CC(=O)N(O)CCCCCNC(=O)CCC(=O)N(O)CCCCCNC(=O)CCC(=O)N(O)CCCCCN` [ferrioxamine B], for which the equilibrium dissociation constant (Kd) on FpvB W347V R648C (setting [1]) was 874 µM; at FpvB R191A R648C (setting [1]), 535 µM and 480 µM. Further, the “stimulation of FpvB expression” value in the assay with FpvB was “None of the compounds stimulated expression”. In addition, the fluorescence recovery at FpvB R648C is given as ~ 50 % of the control.
Turning to `NCCCCC(NC(=O)C(CO)NC(=O)[C@@H]1CCN=C2C(NC(=O)CCC(=O)O)=Cc3cc(O)c(O)cc3N21)C(=O)NCC(=O)NC(CCCN(O)C=O)C(=O)NC1CCCCNC(=O)C(CO)NC(=O)C(CCCN(O)C=O)NC1=O` (some centres unmarked) [pyoverdine] (Suc-[X1][ξS][ξK]G[ξOrn(N(OH)CHO)][ξK][ξOrn(N(OH)CHO)][ξS]; lactam 6-C), the “affinity (Kd not reached, no saturation at highest concentration)” value at FpvB W347V R648C and at FpvB R191A R648C was “reduced affinity” in each case. For the same compound, in the assay with FpvB, the “stimulation of FpvB expression” value is recorded as “None of the compounds stimulated expression”. The fluorescence recovery result at FpvB R648C (siderophore at 1/2 Kd (1/2 Kd2 for ferrioxamine B), recorded for 1 h) is “no recovery”.
